Measurements: patent US9701664B2, “Fused 1,4-dihydrodioxin derivatives as inhibitors of heat shock transcription factor 1” (Cancer Research Technology Limited, priority 2013, dated 2017)
Read-outs that look alike come from different tables or passages of the source.

Experiments:
HSP72 in U2OS cells = test: Cell-based ELISA (Cellisa) assay, U2OS cells: inhibition of 17-AAG-induced HSP72; details: U2OS cells (Examples 1-168)
Procedure: U2OS cells (5-8×10^4 cells/mL) or SK-OV-3 cells (5-8×10^4 cells/mL) were seeded into 96-well plates and incubated at 37° C. for 48 h. Compounds were then added at a range of concentrations and incubated for 1 h before addition of 17-AAG (250 nM). Cells were then incubated for 18 h. The medium was removed washed 2× with PBS and cells were then fixed with fixing solution (4% paraformaldehyde, 0.3% TritonX-100 in PBS) for 30 min at 4° C. The plates were then washed 2× with PBS before blocking with 5% milk for 30 min at 37° C. After washing the plates 4× with 0.1% Tween-20/deionised water, HSP72 antibody (SPA-810, Enzo Life) was added for 1.5 h at 37° C. Following 4× washes, the plates were incubated with europium-labelled anti-mouse antibody (0.6 ug/ml) in Delfia assay buffer (Perkin Elmer) for 1 h at 37° C. After washing the plates, Delfia enhancement solution was added, shaken for 10 min before reading in the Envision plate reader (Perkin-Elmer) with excitation at 340 nm and emission at 615 nm. The plates were washed again before protein determination using the bicinchoninic acid assay (BCA assay, Pierce Biotechnology). The europium counts were normalised for the amount of protein in each well. The 50% inhibitory concentration value of the compound was then calculated.

U2OS cells = test: Titre Blue cell viability assay, U2OS cells; format: cell-based

Molecule | IC50 (HSP72 in U2OS cells; Homo sapiens) [nM] | IC50 (U2OS cells; Homo sapiens, U2OS) [nM] | IC50 (HSP72 in U2OS cells) [nM] | IC50 (U2OS cells) [nM]
Cc1ccc2cc(C(=O)Nc3cc(NC(=O)c4ccc5c(c4)OCCO5)ccc3C(F)(F)F)ccc2n1 [Example 129, N-(5-(2,3-dihydrobenzo[b][1,4]dioxine-6-carboxamido)-2-(trifluoromethyl)phenyl)-2-methylquinoline-6-carboxamide] | 344 | 162 | – | –
Cc1ccc(NC(=O)c2ccc3c(c2)OCCO3)cc1NC(=O)c1ccc2nc(OCCN3CC[C@H](F)C3)ccc2c1 [Example 65, (S)—N-(5-(2,3-dihydrobenzo[b][1,4]dioxine-6-carboxamido)-2-methylphenyl)-2-(2-(3-fluoropyrrolidin-1-yl)ethoxy)quinoline-6-carboxamide] | 29 | 7 | – | –
CCC(=O)N(C)Cc1ccc2cc(C(=O)Nc3cc(NC(=O)c4ccc5c(c4)OCCO5)ccc3C)ccc2n1 [Example 78, N-(5-(2,3-dihydrobenzo[b][1,4]dioxine-6-carboxamido)-2-methylphenyl)-2-((N-methylpropionamido)methyl)quinoline-6-carboxamide] | 45 | 91 | – | –
Cc1ccc(NC(=O)c2ccc3c(c2)OCCO3)cc1NC(=O)c1ccc2nc(CCN(C)C)ccc2c1 [Example 69, N-(5-(2,3-dihydrobenzo[b][1,4]dioxine-6-carboxamido)-2-methylphenyl)-2-(2-(dimethylamino)ethyl)quinoline-6-carboxamide] | 57 | 305 | – | –
COc1c(C)cc(C(=O)Nc2cc(NC(=O)c3ccc4c(c3)OCCO4)ccc2C)cc1C [Example 42, N-(3-(4-methoxy-3,5-dimethylbenzamido)-4-methylphenyl)-2,3-dihydrobenzo[b][1,4]dioxine-6-carboxamide] | 546 | 665 | – | –
Cc1ccc(NC(=O)c2ccc3c(c2)OCCO3)cc1NC(=O)c1ccc2cnccc2c1 [Example 46, N-(5-(2,3-dihydrobenzo[b][1,4]dioxine-6-carboxamido)-2-methylphenyl)isoquinoline-6-carboxamide] | 4 | 12 | – | –
Cc1ccc(NC(=O)c2ccc3c(c2)OCCO3)cc1NC(=O)c1ccc2nc(OCC(C)N3CCCC3)ccc2c1 (stereo not shown) [Example 68, N-(5-(2,3-dihydrobenzo[b][1,4]dioxine-6-carboxamido)-2-methylphenyl)-2-(2-(pyrrolidin-1-yl)propoxy)quinoline-6-carboxamide] | 41 | 12 | – | –
Cc1ccc(NC(=O)c2ccc3c(c2)OCO3)cc1NC(=O)c1ccc2ncccc2c1 [Example 131, N-(5-(benzo[d][1,3]dioxole-5-carboxamido)-2-methylphenyl)quinoline-6-carboxamide] | 171 | 74 | – | –
COc1ccc2cc(C(=O)Nc3cc(NC(=O)c4ccc5c(c4)OCCO5)ccc3C)ccc2n1 [Example 29, N-(5-(2,3-dihydrobenzo[b][1,4]dioxine-6-carboxamido)-2-methylphenyl)-2-methoxyquinoline-6-carboxamide] | 499 | 626 | – | –
Cc1ccc(NC(=O)c2ccc3c(c2)OCCO3)cc1NC(=O)c1ccc2c(c1)CCCC2 [Example 34, N-(4-methyl-3-(5,6,7,8-tetrahydronaphthalene-2-carboxamido)phenyl)-2,3-dihydrobenzo[b][1,4]dioxine-6-carboxamide] | 850 | 413 | – | –
COc1ccnc2ccc(C(=O)Nc3cc(NC(=O)c4ccc5c(c4)OCCO5)ccc3C)cc12 [Example 11, N-(5-(2,3-dihydrobenzo[b][1,4]dioxine-6-carboxamido)-2-methylphenyl)-4-methoxyquinoline-6-carboxamide] | 38 | 95 | – | –
Cc1ccc(NC(=O)c2ccc3c(c2)OCCO3)cc1NC(=O)c1ccc2nc(OCCCNC(=O)OC(C)(C)C)ccc2c1 [Example 35, tert-butyl (3-((6-((5-(2,3-dihydrobenzo[b][1,4]dioxine-6-carboxamido)-2-methylphenyl)carbamoyl)quinolin-2-yl)oxy)propyl)carbamate] | 867 | 432 | – | –
Cc1ccc(NC(=O)c2ccc3c(c2)OCCO3)cc1NC(=O)c1ccc2c(c1)CCCN2C [Example 143, N-(5-(2,3-dihydrobenzo[b][1,4]dioxine-6-carboxamido)-2-methylphenyl)-1-methyl-1,2,3,4-tetrahydroquinoline-6-carboxamide] | 55 | 26 | – | –
Cc1ccc(NC(=O)c2ccc3c(c2)OCCO3)cc1NC(=O)c1ccc2nc(OCCN3CCCCC3)ccc2c1 [Example 54, N-(5-(2,3-dihydrobenzo[b][1,4]dioxine-6-carboxamido)-2-methylphenyl)-2-(2-(piperidin-1-yl)ethoxy)quinoline-6-carboxamide] | 10 | 7 | – | –
Cc1ccc(NC(=O)c2ccc3c(c2)OCCO3)cc1NC(=O)c1ccc2c(c1)CCN2 [Example 84, N-(5-(2,3-dihydrobenzo[b][1,4]dioxine-6-carboxamido)-2-methylphenyl)indoline-5-carboxamide] | 184 | 95 | – | –
Cc1ccc(NC(=O)c2ccc3c(c2)OCCO3)cc1NC(=O)c1ccc2sccc2c1 [Example 18, N-(3-(benzo[b]thiophene-5-carboxamido)-4-methylphenyl)-2,3-dihydrobenzo[b][1,4]dioxine-6-carboxamide] | 62 | 34 | – | –
Cc1ccc(NC(=O)c2ccc3c(c2)OCCO3)cc1NC(=O)c1ccc2nccc(C#N)c2c1 [Example 24, 4-cyano-N-(5-(2,3-dihydrobenzo[b][1,4]dioxine-6-carboxamido)-2-methylphenyl)quinoline-6-carboxamide] | 174 | 169 | – | –
Cc1ccc(NC(=O)c2ccc3c(c2)OCCO3)cc1NC(=O)c1ccc2ncncc2c1 [Example 10, N-(5-(2,3-dihydrobenzo[b][1,4]dioxine-6-carboxamido)-2-methylphenyl)quinazoline-6-carboxamide] | 29 | 15 | – | –
N#Cc1ccc(NC(=O)c2ccc3c(c2)OCCO3)cc1NC(=O)c1ccc2ncccc2c1 [Example 140, N-(2-cyano-5-(2,3-dihydrobenzo[b][1,4]dioxine-6-carboxamido)phenyl)quinoline-6-carboxamide] | 31 | 34 | – | –
Cc1ccc(NC(=O)c2ccc3c(c2)OCCO3)cc1NC(=O)c1ccc2nc(CN(C)C)ccc2c1 [Example 71, N-(5-(2,3-dihydrobenzo[b][1,4]dioxine-6-carboxamido)-2-methylphenyl)-2-((dimethylamino)methyl)quinoline-6-carboxamide] | 82 | 118 | – | –
COc1ccc(C(=O)Nc2cc(NC(=O)c3ccc4c(c3)OCCO4)ccc2C)cc1 [Example 27, N-(3-(4-methoxybenzamido)-4-methylphenyl)-2,3-dihydrobenzo[b][1,4]dioxine-6-carboxamide] | 371 | 106 | – | –
Cc1ccc(NC(=O)c2ccc3c(c2)OCCO3)cc1NC(=O)c1ccc(-n2cccn2)cc1 [Example 107, N-(3-(4-(1H-pyrazol-1-yl)benzamido)-4-methylphenyl)-2,3-dihydrobenzo[b][1,4]dioxine-6-carboxamide] | 295 | 227 | – | –
2-(2-aminoethoxy)-N-(5-(2,3-dihydrobenzo[b][1,4]dioxine-6-carboxamido)-2-methyl)phenyl)quinoline-6-carboxamide [Example 89] | – | – | 13 | 15
Cc1ccc(NC(=O)c2ccc3c(c2)OCCO3)cc1NC(=O)c1cnc2cnccc2c1 [Example 44, N-(5-(2,3-dihydrobenzo[b][1,4]dioxine-6-carboxamido)-2-methylphenyl)-1,7-naphthyridine-3-carboxamide] | 11 | 24 | – | –
Cc1ccc(NC(=O)c2ccc3c(c2)OCCO3)cc1NC(=O)c1ccc2nc(N(C)CCN(C)C)ccc2c1 [Example 58, N-(5-(2,3-dihydrobenzo[b][1,4]dioxine-6-carboxamido)-2-methylphenyl)-2-((2-(dimethylamino)ethyl)(methyl)amino)quinoline-6-carboxamide] | 15 | 33 | – | –
Cc1ccc2cc(C(=O)Nc3cc(NC(=O)c4ccc5c(c4)OCCO5)ccc3CO)ccc2n1 [Example 167, N-(5-(2,3-dihydrobenzo[b][1,4]dioxine-6-carboxamido)-2-(hydroxymethyl)phenyl)-2-methylquinoline-6-carboxamide] | 176 | 86 | – | –
O=C(Nc1ccc(Br)c(NC(=O)c2ccc3ncccc3c2)c1)c1ccc2c(c1)OCCO2 [Example 138, N-(2-bromo-5-(2,3-dihydrobenzo[b][1,4]dioxine-6-carboxamido)phenyl)quinoline-6-carboxamide] | 31 | 10 | – | –
Cc1ccc(NC(=O)c2ccc3c(c2)OCCO3)cc1NC(=O)c1ccc2occc2c1 [Example 17, N-(3-(benzofuran-5-carboxamido)-4-methylphenyl)-2,3-dihydrobenzo[b][1,4]dioxine-6-carboxamide] | 97 | 73 | – | –
Cc1ccc(NC(=O)c2ccc3c(c2)OCCO3)cc1NC(=O)c1ccc2nc(OCCN3CCCC(F)C3)ccc2c1 (stereo not shown) [Example 57, N-(5-(2,3-dihydrobenzo[b][1,4]dioxine-6-carboxamido)-2-methylphenyl)-2-(2-(3-fluoropiperidin-1-yl)ethoxy)quinoline-6-carboxamide] | 37 | 31 | – | –
